Data taken from publication PMC4534002 (Journal of medicinal chemistry, 2013).

What was measured:
[1] = biological target: CYP3A4 S119A (Homo sapiens, UniProt P08684, S119A); test: Thermal denaturation of CYP3A4 S119A-inhibitor complex; assay type: binding; conditions: for Tm: CYP3A4 S119A mutant, ligand-free 54.0 ± 0.1, with 2% DMSO 53.5 ± 0.1; for decrease in Tm of ligand-bound S119A CYP3A4 vs wild type: S119A vs WT
[2] = biological target: T1, CYP3A4 (Homo sapiens, UniProt P08684); test: Redox potential measurement of inhibitor-bound CYP3A4; conditions: for Eo,7 (midpoint redox potential of the inhibitor-bound CYP3A4): ligand-free CYP3A4 ~−300 mV, benzyl viologen as redox dye; for negative shift (decrease) in heme redox potential Eo,7 caused by ligation: relative to ligand-free CYP3A4
[3] = biological target: T1, CYP3A4; test: Thermal denaturation of CYP3A4-inhibitor complex, WT; assay type: binding; conditions: WT CYP3A4 2 µM, 10 µM inhibitor; ligand-free 52.6 ± 0.1, with 2% DMSO 52.1 ± 0.1
[4] = biological target: T1, CYP3A4; test: Dissociation during repetitive concentration/dilution cycles; assay type: binding
[5] = biological target: T1, CYP3A4; test: Spectral binding titration; conditions: WT CYP3A4, relative to ritonavir
[6] = biological target: T1, CYP3A4; test: BFC hydroxylase activity inhibition in reconstituted system with CPR; conditions: from IC50 values

| SMILES | Tm [1] [°C] | decrease in Tm of ligand-bound S119A CYP3A4 vs wild type [1] | Eo,7 (midpoint redox potential of the inhibitor-bound CYP3A4) [2] | negative shift (decrease) in heme redox potential Eo,7 caused by ligation [2] | Tm (melting temperature of the CYP3A4-inhibitor complex) [3] [°C] | reversibility of binding (dissociation from CYP3A4) [4] | fold lower binding affinity for CYP3A4 than ritonavir (from Ks) [5] [fold] | fold lower inactivating potency than ritonavir [6] [fold] | fold more effective inhibition of BFC hydroxylation than ritonavir [6] |
| --- | --- | --- | --- | --- | --- | --- | --- | --- | --- |
| CC(C)c1nc(CN(C)C(=O)N[C@H](C(=O)N[C@H](CC[C@H](Cc2ccccc2)NC(=O)OCc2cnc[nH]2)Cc2ccccc2)C(C)C)cs1 [compound 1] | 55.5 ± 0.2 | 1–1.6 °C | <<-370 mV | > 70 mV | 56.5 ± 0.2 | dissociated | – | – | – |
| CC(C)c1nc(CN(C)C(=O)N[C@H](C(=O)N[C@H](CC[C@H](Cc2ccccc2)NC(=O)OCc2cnco2)Cc2ccccc2)C(C)C)cs1 [compound 2] | 53.2 ± 0.1 | 1–1.6 °C | ≈ −370 mV | ~ 50 mV | 54.8 ± 0.1 | dissociated | 10 | 6 | – |
| CC(C)c1nc(CN(C)C(=O)N[C@H](C(=O)N[C@H](CC[C@H](Cc2ccccc2)NC(=O)OCc2cccnc2)Cc2ccccc2)C(C)C)cs1 [compound 3] | 55.6 ± 0.2 | 1–1.6 °C | −350 ± 5 mV | ~70 mV | 57.2 ± 0.2 | irreversibly | – | – | 2–4 fold |
